Test results: patent publication US9938292B2 (GUANGDONG ZHONGSHENG PHARMACEUTICAL CO., LTD, priority 2014, dated 2018)

System: Hedgehog signaling pathway
Assay: Gli-Luc luciferase reporter gene assay in C3H10T1/2/Gli-Luc cells under Shh-N stimulation
Assay type: cell-based
Settings: Mus musculus, C3H 10T1/2, 24 h, luciferase RLU, read-out: biological activity: IC50 of the inhibitory activities of compounds on the hedgehog pathway
Source text: The luciferase (Gli-Luc) reporter gene with Gli response element was transfected into C3H10T1/2 cells, under Shh-N stimulation conditions, determine the Hedgehog signaling pathway inhibitors through the detection of gene expression in cell activity report. In this study, we evaluated the inhibitory effects of compounds on Hedgehog signaling pathway in the IC50 value of the compound as an index.
Cell lines: C3H10T1/2/Gli-Luc stable cell line • C3H10T1/2/Gli-Luc Cell culture medium (DMEM/high glucose HyClone, #SH30022.01B; 10% serum Hyclone, #SV30087; 0.4% Hygromycin B Roche, #13398200) • 0.25% Trypsin-EDTA (Gibco, #25200)
Shh-N, HEK293/SHH-N stable cell culture supernatant
Inoculate the logarithmic growth phase of C3H10T1/2/Gli-Luc cells into a 96-well culture plate with 20000 cells per well, cells were cultured in a 37° C., 5% CO2 incubator overnight. The next day, the compounds were diluted in the following ways: the positive compound GDC0449 (1 mM) and the compounds (1 mM) to be measured were serially diluted to 7 concentrations by DMSO according to 1:3 and 1:10 respectively, the eighth is for DMSO control, and then diluted with fresh medium 100 times. The medium of the cells cultured overnight was removed, 80 μL fresh culture medium was added per well, then 20 μL gradiently diluted positive compound and compounds to be measured and 100 μL 30 nM Shh-N containing conditioned medium were added, each concentration repeated 2 wells, at the same time, positive and negative reference well were set (i.e. Shh Ctrl: 80 μL fresh medium+20 μL 1% DMSO containing medium+100 μL 30 nM Shh-N containing conditioned medium; Unstimulated Ctrl: 180 μL fresh medium+20 μL 1% DMSO containing medium), cells were cultured in the incubator for further 24 h.
Intracellular luciferase activity detection: take the cells out of 96-well plate, discard the culture medium, the cells were washed with PBS twice, then each well added with 20 μL lysate (Promega E1531), oscillate pyrolysis at room temperature for 30 min. 5 μL cell lysates were transferred to 384-well plate (Greiner 781074), then each well was added with 25 μL luciferase reaction liquid (Promega E1501), after rapid mixed, immediately placed into the VarioSkan Flash multi-function reading instrument to read the relative light units (RLU) value.
Data analysis: using Prism's GraphPad 5 for data analysis. RLU reading to the logarithmic mapping of compound concentration on behalf of luciferase activity, and then curve fitting using the following equation to give IC50 value, Y (RLU)=minimum+(maximum−minimum)/(1+10^(log of compound concentration−Log IC50)).

IC50 [µM] | Compound
≤ 0.05 | COc1c(-c2ccc(N3C[C@@H](C)O[C@@H](C)C3)cc2)cnc2c(-c3ccc(C)nc3)cccc12 [Embodiment 94]
≤ 0.05 | COc1c(-c2ccc(N3C[C@@H](C)O[C@@H](C)C3)cc2)cnc2c(-c3ccc(Cl)nc3)cccc12 [Embodiment 95]
0.1 to 0.5 | COc1c(-c2ccc(N3C[C@@H](C)O[C@@H](C)C3)cc2)cnc2c(-c3ccc(S(=O)(=O)N4CCOCC4)cc3)cccc12 [Embodiment 96]
0.1 to 0.5 | COc1c(-c2ccc(N3C[C@@H](C)O[C@@H](C)C3)cc2)cnc2c(-c3ccncc3)cccc12 [Embodiment 97]
≤ 0.05 | COc1c(-c2ccc(N3C[C@@H](C)O[C@@H](C)C3)cc2)cnc2c(-c3ccc(Cl)c(Cl)c3)cccc12 [Embodiment 98]
0.1 to 0.5 | COc1ccc(-c2cccc3c(OC)c(-c4ccc(N5C[C@@H](C)O[C@@H](C)C5)cc4)cnc23)cn1 [Embodiment 100]
0.1 to 0.5 | CNC(=O)c1ccc(-c2cccc3c(OC)c(-c4ccc(N5C[C@@H](C)O[C@@H](C)C5)cc4)cnc23)cn1 [Embodiment 101]
0.05 to 0.1 | COc1c(-c2ccc(N3C[C@@H](C)O[C@@H](C)C3)cc2)cnc2c(-c3ccc(C#N)c(F)c3)cccc12 [Embodiment 102]
0.05 to 0.1 | COc1c(-c2ccc(N3C[C@@H](C)O[C@@H](C)C3)cc2)cnc2c(-c3ccc(S(C)(=O)=O)cc3Cl)cccc12 [Embodiment 103]
≤ 0.05 | COc1c(-c2ccc(N3C[C@@H](C)O[C@@H](C)C3)cc2)cnc2c(-c3ccc(C#N)cc3F)cccc12 [Embodiment 104]
≤ 0.05 | COc1c(-c2ccc(N3C[C@@H](C)O[C@@H](C)C3)cc2)cnc2c(-c3ccc(C#N)cc3C)cccc12 [Embodiment 105]
0.05 to 0.1 | COc1c(-c2ccc(N3C[C@@H](C)O[C@@H](C)C3)cc2)cnc2c(-c3ccc(C(F)(F)F)nc3)cccc12 [Embodiment 106]
0.1 to 0.5 | COc1c(-c2ccc(N3C[C@@H](C)O[C@@H](C)C3)cc2)cnc2c(-c3cnn(C)c3)cccc12 [Embodiment 108]
0.05 to 0.1 | COc1c(-c2ccc(N3C[C@@H](C)O[C@@H](C)C3)cc2)cnc2c(-c3ccc4c(c3)OCO4)cccc12 [Embodiment 109]
0.1 to 0.5 | COc1c(-c2ccc(N3C[C@@H](C)O[C@@H](C)C3)cc2)cnc2c(-c3cnc(N(C)C)nc3)cccc12 [Embodiment 110]
0.1 to 0.5 | COc1c(-c2ccc(N3C[C@@H](C)O[C@@H](C)C3)cc2)cnc2c(-c3ccc(-c4ncc[nH]4)cc3)cccc12 [Embodiment 111]
≤ 0.05 | COc1c(-c2ccc(N3C[C@@H](C)O[C@H](C)C3)cc2)cnc2c(-c3ccc(C#N)cc3)cccc12 [Embodiment 112]
≤ 0.05 | COc1c(-c2ccc(N3C[C@H](C)C[C@H](C)C3)cc2)cnc2c(-c3ccc(C#N)cc3)cccc12 [Embodiment 113]
1 to 5 | COc1c(-c2ccc(N3C[C@@H](C)O[C@@H](C)C3)cc2)cnc2c(-c3nc4ccccc4[nH]3)cccc12 [Embodiment 114, (2S,6R)-4-(4-(8-(1H-benzo[d]imidazol-2-yl)-4-methoxyquinolin-3-yl)phenyl)-2,6-dimethylmorpholine]
1 to 5 | COc1c(-c2ccc(N3C[C@@H](C)O[C@@H](C)C3)cc2)cnc2c(-c3nc(C#N)cs3)cccc12 [Embodiment 115, 2-(3-(4-((2S,6R)-2,6-dimethylmorpholino)phenyl)-4-methoxyquinolin-8-yl)thiazole-4-carbonitrile]
0.1 to 0.5 | COc1c(-c2ccc(N3C[C@@H](C)O[C@@H](C)C3)cc2)cnc2c(C3CCC(C#N)CC3)cccc12 (stereo partly drawn) [Embodiment 116, 4-(3-(4-((2S,6R)-2,6-dimethylmorpholino)phenyl)-4-methoxyquinolin-8-yl) cyclohexane carbonitrile]

IC50 [µM] | Compound
1 to 5 | COc1c(-c2ccc(N3C[C@@H](C)O[C@@H](C)C3)nc2)cnc2c(NC(=O)C(C)(C)C)cccc12 [Embodiment 117, N-(3-(6-((2S,6R)-2,6-dimethylmorpholino)pyridin-3-yl)-4-methoxyquinolin-8-yl) pivalamide]
0.05 to 0.1 | C[C@@H]1CN(c2ccc(-c3cnc4c(-c5ccc(C#N)cc5)cccc4c3Cl)cc2)C[C@H](C)O1 [Embodiment 118, 4-(4-chloro-3-(4-((2S,6R)-2,6-dimethylmorpholino)phenyl)quinolin-8-yl)benzonitrile]
0.05 to 0.1 | C[C@@H]1CN(c2ccc(-c3cnc4c(-c5ccc(C#N)cc5)cccc4c3N(C)C)cc2)C[C@H](C)O1 [Embodiment 119, 4-(4-(dimethylamino)-3-(4-((2S,6R)-2,6-dimethylmorpholino)phenyl)quinolin-8-yl) benzonitrile]
0.5 to 1 | C[C@@H]1CN(c2ccc(-c3cnc4c(-c5ccc(C#N)cc5)cccc4c3S(C)(=O)=O)cc2)C[C@H](C)O1 [Embodiment 120, 4-(3-(4-((2S,6R)-2,6-dimethylmorpholino)phenyl)-4-(methylsulfonyl)quinolin-8-yl) benzonitrile]
≤ 0.05 | C[C@@H]1CN(c2ccc(-c3cnc4c(-c5ccc(C#N)cc5)cccc4c3C3CC3)cc2)C[C@H](C)O1 [Embodiment 121, 4-(4-cyclopropyl-3-(4-((2S,6R)-2,6-dimethylmorpholino)phenyl)quinolin-8-yl) benzonitrile]
0.05 to 0.1 | Cc1c(-c2ccc(N3C[C@@H](C)O[C@@H](C)C3)cc2)cnc2c(-c3ccc(C#N)cc3)cccc12 [Embodiment 122]
0.05 to 0.1 | C[C@@H]1CN(c2ccc(-c3cnc4c(-c5ccc(C#N)cc5)cccc4c3C#N)cc2)C[C@H](C)O1 [Embodiment 124]
≤ 0.05 | Cc1cc(C#N)ccc1-c1cccc2c(C3CC3)c(-c3ccc(N4C[C@@H](C)O[C@@H](C)C4)nc3)cnc12 [Embodiment 125]
0.1 to 0.5 | C[C@@H]1CN(c2ccc(-c3cnc4c(-c5ccc(C#N)cc5)cccc4c3N3CCC3)cc2)C[C@H](C)O1 [Embodiment 126, 4-(4-(azetidin-1-yl)-3-(4-((2S,6R)-2,6-dimethylmorpholino)phenyl)quinolin-8-yl) benzonitrile]
0.1 to 0.5 | C[C@@H]1CN(c2ccc(-c3cnc4c(-c5ccc(C#N)cc5)cccc4c3)cc2)C[C@H](C)O1 [Embodiment 127, 4-(3-(4-((2S,6R)-2,6-dimethylmorpholino)phenyl)quinolin-8-yl)benzonitrile]
0.5 to 1 | COC(=O)c1c(-c2ccc(N3C[C@@H](C)O[C@@H](C)C3)cc2)cnc2c(-c3ccc(C#N)cc3)cccc12 [Embodiment 128, methyl 8-(4-cyanophenyl)-3-(4-((2S,6R)-2,6-dimethylmorpholino)phenyl)quinoline-4-carboxylate]
0.05 to 0.1 | CC(=O)Nc1c(-c2ccc(N3C[C@@H](C)O[C@@H](C)C3)cc2)cnc2c(-c3ccc(C#N)cc3)cccc12 [Embodiment 129, N-(8-(4-cyanophenyl)-3-(4-((2S,6R)-2,6-dimethylmorpholino)phenyl)quinolin-4-yl) acetamide]
0.5 to 1 | C[C@@H]1CN(c2ccc(-c3cnc4c(-c5ccc(C#N)cc5)cccc4c3NS(C)(=O)=O)cc2)C[C@H](C)O1 [Embodiment 130]
≤ 0.05 | Cc1c(-c2ccc(N3C[C@@H](C)O[C@@H](C)C3)nc2)cnc2c(-c3ccc(C#N)cc3)cccc12 [Embodiment 132, 4-(3-(6-((2S,6R)-2,6-dimethylmorpholino)pyridin-3-yl)-4-methylquinolin-8-yl) benzonitrile]
≤ 0.05 | CCc1c(-c2ccc(N3C[C@@H](C)O[C@@H](C)C3)nc2)cnc2c(-c3ccc(C#N)cc3)cccc12 [Embodiment 133]
≤ 0.05 | C[C@@H]1CN(c2ccc(-c3cnc4c(-c5ccc(C#N)cc5)cccc4c3C3CC3)cn2)C[C@H](C)O1 [Embodiment 134]
0.1 to 0.5 | COc1c(-c2ccc(N3C[C@@H](C)O[C@@H](C)C3)cc2)cnc2c(-c3ccc(C#N)cc3)cc(Cl)cc12 [Embodiment 135, 4-(6-chloro-3-(4-((2S,6R)-2,6-dimethylmorpholino)phenyl)-4-methoxyquinolin-8-yl) benzonitrile]
0.05 to 0.1 | COc1c(-c2ccc(N3CC(C)OC(C)C3)cc2)cnc2c(-c3ccc(C#N)cc3)cc(F)cc12 (centres unmarked) [Embodiment 136, 4-(3-(4-(2,6-dimethylmorpholino)phenyl)-6-fluoro-4-methoxyquinolin-8-yl) benzonitrile]
0.1 to 0.5 | COc1c(-c2ccc(N3C[C@@H](C)O[C@@H](C)C3)cc2)cnc2c(-c3ccc(OC(F)(F)F)cc3)cc(F)cc12 [Embodiment 137]
≤ 0.05 | COc1c(-c2ccc(N3C[C@@H](C)O[C@@H](C)C3)cc2)cnc2c(-c3ccc(C#N)cc3)ccc(F)c12 [Embodiment 138]
